US4327026A, “Benzodiazepine derivatives” (Hoffmann-La Roche Inc., priority 1980, dated 1982)

Columns and labels:
[1] = Acute toxicity, single oral administration to mice; conditions: mouse, in vivo, single oral administration (p.o.)
Excerpt: (§1) The following Table contains results obtained in the previously described experiment with representative compounds of formula I. In this Table there are given for each of the compounds in question the dosage administered (in mg/kg p.o.) as well as the percentage variation in the urine volume, the sodium excretion and the potassium excretion in comparison with the control animals (i.e. in comparison with the animals treated only with aldosterone). Moreover, the Table contains data concerning the acute toxicity of the compounds investigated (LD 50 in mg/kg in the case of single oral administration to mice).

aldosterone = experiment: Aldosterone-antagonistic activity in adrenalectomised rats (urine volume, sodium and potassium excretion); assay type: in vivo, Female Holtzmann rats; conditions: for Volume (urine volume) in %, based on control animals / [K+] (potassium excretion) in %, based on control animals / [Na+] (sodium excretion) in %, based on control animals: 1 mg/kg p.o., 30 min before aldosterone s.c., urine collected 3 hours, vs animals treated only with aldosterone
Description: If compounds of formula I are administered to the animals before the treatment with aldosterone, then there is observed, in comparison to animals which are treated only with aldosterone (control animals), a pronounced increase of the sodium excretion (i.e. the sodium retention caused by aldosterone is antagonised), whereas the potassium excretion and the urine volume are influenced to a lesser extent.
The standard experiment is carried out as follows:
Female Holtzmann rats (150-180 g) are bilaterally adrenalectomised 70 to 74 hours before the beginning of the experiment. After the operation, the animals receive a customary rat dry feed and 0.9% sodium chloride solution for drinking. 16-17 hours before the beginning of the experiment the feed is removed from the animals, but they can subsequently drink, as before, 0.9% sodium chloride solution ad libitum. At the beginning of the experiment the substance to be tested as an aldosterone-antagonist is administered to the animals by means of a stomach probe. 30 minutes later the animals receive a subcutaneous injection of […] of aldosterone. After a further 90 minutes, the urinary bladders of the animals are emptied by careful suprapubic pressure, whereupon the animals are placed individually in metabolic cages without food and without drink. The urine of the animals is then collected for 3 hours, whereupon their urinary bladders are once more emptied. The spontaneously excreted urine and the remaining urine obtained at the conclusion of the experiment by pressing-out the urinary bladders are collected in graduated centrifuge glasses. Sodium and potassium concentrations in the urine are determined with a flame photometer.
as §1

SMILES | LD50 [1] [mg/kg] | Volume (urine volume) in %, based on control animals (aldosterone) [%] | [K+] (potassium excretion) in %, based on control animals (aldosterone) [%] | [Na+] (sodium excretion) in %, based on control animals (aldosterone) [%] | excreted urine volume after aldosterone (aldosterone; vs untreated animals, in words) | potassium excretion after aldosterone (aldosterone; vs untreated animals, in words) | sodium excretion after aldosterone (aldosterone; vs untreated animals, in words)
CC1N=C(c2ccccc2F)c2cc(C(C)N)ccc2N(C)C1=O (stereo not drawn) [Example 2, 7-(1-aminoethyl)-5-(o-fluorophenyl)-1,3-dihydro-1,3-dimethyl-2H-1,4-benzodiazepin-2-one] | 625 | 169 | 102 | 298 | – | – | –
CCN1C(=O)CNC(c2ccccc2F)c2cc(C(C)=NO)ccc21 (stereo not drawn) [Example 5] | > 5000 | 157 | 87 | 247 | – | – | –
CCN1C(=O)CNC(c2ccccc2F)c2cc(C(C)NCCO)ccc21 (stereo not drawn) [Example 6, 1-ethyl-5-(o-fluorophenyl)-1,3,4,5-tetrahydro-7-/1-[(2-hydroxyethyl)-amino]ethyl/-2H-1,4-benzodiazepin-2-one] | 4000 | 150 | 93 | 306 | – | – | –
CCN1C(=O)CNC(c2ccccc2F)c2cc(C(C)N(C)C)ccc21 (stereo not drawn) [Example 7a, 7-[1-(dimethylamino)ethyl]-1-ethyl-5-(o-fluorophenyl)-1,3,4,5-tetrahydro-2H-1,4-benzodiazepin-2-one] | 500 | 147 | 90 | 252 | – | – | –
CCN1C(=O)CN=C(c2ccccc2F)c2cc(C(C)OCOC)ccc21 (stereo not drawn) [Example 9a, 1-ethyl-5-(o-fluorophenyl)-1,3-dihydro-7-[1-(methoxymethoxy)ethyl]-2H-1,4-benzodiazepin-2-one] | 500 | 138 | 93 | 359 | – | – | –
CN1C(=O)CN=C(c2ccccc2)c2cc(CNC(=O)NCCO)ccc21 [Example 22, 1-[(2,3-dihydro-1-methyl-2-oxo-5-phenyl-1H-1,4-benzodiazepin-7-yl)methyl]-3-(2-hydroxyethyl)urea] | > 5000 | 130 | 82 | 224 | – | – | –
C[C@]12CCC(=O)C=C1CC[C@@H]1[C@@H]2[C@@H](O)C[C@]2(C=O)[C@@H](C(=O)CO)CC[C@@H]12 [aldosterone, reference compound] | – | – | – | – | reduction of the excreted urine volume | increased potassium excretion | pronounced reduction of the sodium excretion
